Measured values taken from patent US20090209460A1, “COMPOSITIONS AND METHODS FOR TREATING OBESITY AND RELATED METABOLIC DISORDERS” (Amylin Pharmaceuticals, Inc., priority 2005, published 2009).
Read-outs that look alike come from different tables or passages of the source. Residues, ends and D or L forms follow the SMILES beside them.

How the values were obtained:
[1] = body weight and food intake in mice with diet induced obesity (mouse DIO), osmotic pump; assay type: in vivo
Experimental: The effect of FN38 and related compounds on body weight and food intake in obese subjects was investigated. Mice having diet induced obesity (DIO) were used. All in vivo tests were performed with peripheral injections of peptide. […] 4-week-old male C57BL/6 mice were group housed with water and a standard pelleted mouse chow diet available ad libitum, except as noted, and were maintained on a on a high fat diet (58% kcal from fat) for 4 weeks prior to the experiment. At the end of fattening period, osmotic pumps were implanted interscapularly under anesthesia. Mice received pumps continuously delivering vehicle (50% DMSO in water or saline) or polypeptide at the dose indicated. Food intake and body weight measurements were obtained weekly.

NIH/Swiss mice = experiment: acute food intake assay, lean overnight-fasted NIH/Swiss mice, intraperitoneal injection; assay type: in vivo, mouse; details: for reduction of food intake: administered systemically (i.p. to mice), dose and time not stated; for FI (60′, 200): % change relative to control, 60 min; for ED50 for effect on food intake: over 30 min, i.p.; for Activity (percent decrease in cumulative food intake compared to the vehicle), AUC: intraperitoneal, timepoint 120 min; for Food Intake Inhibition: mouse assay, dose of 200 mg/kg, measured at 60 minutes
Outline: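 Overnight-fasted lean female NIH/Swiss mice (8-24 weeks, group housed) received vehicle or peptide intraperitoneally at time 0, then pre-weighed standard chow. Food consumed was weighed at 30, 60 and 120 min and expressed as % change versus control.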

[2] = cumulative weight gain in rats with diet induced obesity (rat DIO), subcutaneous pump for seven days; assay type: in vivo; details: subcutaneously continuously by pump for seven days
Experimental: Both compounds were administered subcutaneously continuously by pump for seven days at the rate and dosage indicated.

over-night fasted rats = experiment: food intake in over-night fasted rats, given intraperitoneally; assay type: in vivo, rat; details: 0.1 to 1.5 mg/kg, 30 and 60 minutes
Experimental: FN38 in vehicle (10% DMSO in saline) was administered at 0.1 to 1.5 mg/kg. The food intake in grams and as a percent of vehicle are presented in FIGS. 4A and 4B at 30 and 60 minutes, respectively. FIG. 4C presents the same data plotted as grams of food consumed (intake) versus time. The results cannot be attributed to a locomotor effect (data not shown).

DPP-IV = DPP-IV (Homo sapiens, UniProt P27487); experiment: DPP-IV degradation; assay type: in vitro ADME; details: isolated DPP-IV peptidase, 25 mM HEPES buffer, 37 degrees C., 10 mM peptide, read-out: intact after contact with DPP-IV
Chain of DPP-IV (P27487 whole entry, species assumed): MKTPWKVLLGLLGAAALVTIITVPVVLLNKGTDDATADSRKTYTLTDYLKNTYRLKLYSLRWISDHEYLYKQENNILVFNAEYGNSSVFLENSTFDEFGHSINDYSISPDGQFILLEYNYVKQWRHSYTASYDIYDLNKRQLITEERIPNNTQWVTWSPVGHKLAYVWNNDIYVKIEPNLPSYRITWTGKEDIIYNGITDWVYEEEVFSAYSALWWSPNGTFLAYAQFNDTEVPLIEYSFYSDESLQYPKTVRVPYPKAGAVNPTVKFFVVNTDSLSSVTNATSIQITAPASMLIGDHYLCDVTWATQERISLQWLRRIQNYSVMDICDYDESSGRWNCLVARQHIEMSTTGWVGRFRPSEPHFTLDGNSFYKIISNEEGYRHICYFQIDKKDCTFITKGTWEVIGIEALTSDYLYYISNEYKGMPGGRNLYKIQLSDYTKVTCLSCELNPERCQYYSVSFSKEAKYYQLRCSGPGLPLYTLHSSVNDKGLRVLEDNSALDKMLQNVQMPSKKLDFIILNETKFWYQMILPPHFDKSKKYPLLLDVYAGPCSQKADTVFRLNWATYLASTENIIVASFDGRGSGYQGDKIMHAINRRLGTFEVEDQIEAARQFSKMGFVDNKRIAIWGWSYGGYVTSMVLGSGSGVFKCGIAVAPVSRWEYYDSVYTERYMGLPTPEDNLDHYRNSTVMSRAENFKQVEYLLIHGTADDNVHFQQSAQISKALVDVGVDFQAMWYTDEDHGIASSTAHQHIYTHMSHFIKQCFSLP
Experimental: Peptide and peptidase were incubated in 25 mM HEPES buffer at 37 degrees C. at 10 mM peptide.

[3] = brush border membrane (BBM) stability assay; assay type: in vitro ADME, human; details: for remaining at 5 h: brush border membrane extract (e.g. kidney)
Outline: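 Peptides digested up to 5 h at 37 °C with human brush border membrane extract (e.g. kidney). Timepoints quenched with 50% ACN, 1% FA, centrifuged, intact peptide quantified by selected-ion mass spectrometry. Expressed as percent stable.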

[4] = degradation in vitro in plasma, serial MS analyses; assay type: in vitro ADME
Text: Doses at which we observed herein an absence of anorectic effect (in mice) were 1-2 orders of magnitude higher than the lower U8 dose for maximal hemodynamic effects in dogs (Sumi et al. 1987).

[5] = test system: mice with diet induced obesity (mouse DIO); experiment: cumulative food intake in mouse DIO after IP injection (FIGS. 6 and 7); assay type: in vivo; details: injected IP at t=0; measured at 30, 60, 120 and 180 min
Experimental: The activities of the following compounds are shown: A, [MimicB36] FN38; B, [His37] FN38; C,
[His35] FN38; D, [Phe33] FN38; E, [Val33] FN38; F, Des-(Ser6,Lys7,Thr8,Gln9) FN38; G, Des-Val16,Val17-FN38; H, [Phe31] FN38; I, Des-(Val16,Val17,Phe24,Ala25,Ser26,Gln27) FN38; J, Des-(Phe1,Leu2,Phe3,His4)FN38; and K, Des-(Phe24,Ala25,Ser26,Gln27)-FN38. […] Points represent mean±sd of n=4 cages (3 mice/cage). Peptide was injected IP at t=0. Food was introduced immediately after injection and amount consumed measured at t=30, 60, 120, and 180 min. In the figure, * p<0.05 vs. vehicle control; ANOVA, Dunnett's test.

rats = details: 10 μg ICV dose; cited from earlier work
[6] = percent compound remaining after a 5 hour incubation, human brush border membrane assay, read-out: hBBM

In the case of `CC(C)C[C@H](NC(=O)[C@H](Cc1ccccc1)NC(=O)[C@H](Cc1ccccc1)NC(=O)CNC(=O)CNC(=O)[C@H](CO)NC(=O)[C@@H]1CCCN1C(=O)[C@H](C)NC(=O)[C@@H](NC(=O)[C@@H]1CCCN1C(=O)CNC(=O)[C@H](CCC(N)=O)NC(=O)[C@H](Cc1ccc(O)cc1)NC(=O)[C@H](CCC(=O)O)NC(=O)[C@H](CC(N)=O)NC(=O)[C@@H](NC(=O)[C@H](CCCCN)NC(=O)[C@@H](N)Cc1ccc(O)cc1)C(C)C)C(C)C)C(=O)N[C@@H](Cc1ccccc1)C(=O)N[C@@H](CCCNC(=N)N)C(=O)N1CCC[C@H]1C(=O)N[C@@H](CCCNC(=N)N)C(=O)N[C@@H](CC(N)=O)C(N)=O` [Compound 163293, reference compound] (H-YKVNEYQGPVAPSGGFFLFRPRN-NH2; N-terminus assumed), the “body weight gain and food intake in the DIO assay” value ([1]; 75 nmol/kg/day) is reported as “decreased body weight gain and food intake”, the “d 14 BWt loss” value ([1]; mouse DIO, day 14) is reported as 3.7% and the “reduction of food intake” value (NIH/Swiss mice) is reported as “up to 66%”. The “change in intake (effectiveness)” value (NIH/Swiss mice; food intake over 30 min, mice) was −60%, the “FI (60′, 200)” value (NIH/Swiss mice; food intake) was −37.5% and the “ED50 at t = 60” value (NIH/Swiss mice; food intake) was 0.017 mg/kg. The “ED50 for effect on food intake” value (NIH/Swiss mice; mice) was 6.2 nmol/kg and the “cumulative weight gained in rat DIO (FIG. 5)” value [2] was “reduction of cumulative weight gained”.

In the case of `CC(C)C[C@H](NC(=O)[C@H](CCCCN)NC(=O)[C@H](CCC(N)=O)NC(=O)[C@@H](NC(=O)[C@H](CCCCN)NC(=O)[C@H](CO)NC(=O)[C@H](Cc1ccc(O)cc1)NC(=O)[C@H](Cc1c[nH]cn1)NC(=O)[C@H](Cc1ccccc1)NC(=O)[C@H](CC(C)C)NC(=O)[C@@H](N)Cc1ccccc1)[C@@H](C)O)C(=O)NCC(=O)N[C@@H](CCCCN)C(=O)N[C@@H](CO)C(=O)N[C@@H](CC(N)=O)C(=O)N[C@H](C(=O)N[C@H](C(=O)N[C@@H](CCC(=O)O)C(=O)N[C@@H](CCC(=O)O)C(=O)N[C@@H](CC(C)C)C(=O)N[C@@H](CCC(N)=O)C(=O)N[C@@H](CO)C(=O)N1CCC[C@H]1C(=O)N[C@@H](Cc1ccccc1)C(=O)N[C@@H](C)C(=O)N[C@@H](CO)C(=O)N[C@@H](CCC(N)=O)C(=O)N[C@@H](CO)C(=O)N[C@@H](CCCNC(=N)N)C(=O)NCC(=O)N[C@@H](Cc1ccc(O)cc1)C(=O)N[C@@H](Cc1ccccc1)C(=O)N[C@@H](CC(C)C)C(=O)N[C@@H](Cc1ccccc1)C(=O)N[C@@H](CCCNC(=N)N)C(=O)N1CCC[C@H]1C(=O)N[C@@H](CCCNC(=N)N)C(=O)N[C@@H](CC(N)=O)C(N)=O)C(C)C)C(C)C` [Compound 163661] (H-FLFHYSKTQKLGKSNVVEELQSPFASQSRGYFLFRPRN-NH2; N-terminus assumed), the “d 2 BWt loss” value ([1]; mouse DIO, day 2) is reported as 6.5%, the “d 7 BWt loss” value ([1]; mouse DIO, day 7) is reported as 4.3% and the “effect on food intake in over-night fasted rats” value (over-night fasted rats) is reported as “inhibiting food intake”. For the same molecule, the remaining at 50 min, 10 mM (DPP-IV) was about 100%, the remaining at 5 h [3, 6] was 62% and the BBM ([3]; percent of stable, human brush border membrane extracts, five hours, 37° C.) was 62%. For the same molecule, the “reduction of food intake” value (NIH/Swiss mice) was 64%, the “FI (60′, 200)” value (NIH/Swiss mice; food intake) was 0% and the “ED50 at t = 60” value (NIH/Swiss mice; food intake) was 4 nmol/kg. The “Activity (percent decrease in cumulative food intake compared to the vehicle), AUC” value (NIH/Swiss mice; dose 0.3 nmol/kg) was 0%, the “Activity (percent decrease in cumulative food intake compared to the vehicle), AUC” value (NIH/Swiss mice; dose 1 nmol/kg) was −23% and the “Activity (percent decrease in cumulative food intake compared to the vehicle), AUC” value (NIH/Swiss mice; dose 3 nmol/kg) was −25%. The “Activity (percent decrease in cumulative food intake compared to the vehicle), AUC” value (NIH/Swiss mice; dose 10 nmol/kg) was −48%, the “Activity (percent decrease in cumulative food intake compared to the vehicle), AUC” value (NIH/Swiss mice; dose 30 nmol/kg) was −58% and the “Activity (percent decrease in cumulative food intake compared to the vehicle), AUC” value (NIH/Swiss mice; dose 100 nmol/kg) was −72%. For the same molecule, the “Activity (percent decrease in cumulative food intake compared to the vehicle), AUC” value (NIH/Swiss mice; dose 300 nmol/kg) was −60%, the “Activity (percent decrease in cumulative food intake compared to the vehicle), AUC” value (NIH/Swiss mice; dose 1000 ug/kg) was −46% and the “Food Intake Inhibition” value (NIH/Swiss mice) was −46%. For the same molecule, the “ED50 for effect on food intake” value (NIH/Swiss mice; mice) was 8.6 nmol/kg and the “cumulative weight gained in rat DIO (FIG. 5)” value [2] was “reduction of cumulative weight gained”.

With `CC(C)C[C@H](NC(=O)[C@H](Cc1ccccc1)NC(=O)[C@@H](N)Cc1ccc(O)cc1)C(=O)N[C@@H](Cc1ccccc1)C(=O)N[C@@H](CCCNC(=N)N)C(=O)N1CCC[C@H]1C(=O)N[C@@H](CCCNC(=N)N)C(=O)N[C@@H](CC(N)=O)C(N)=O` [Compound 163291, reference compound] the “degradation in vitro in plasma” value [4] was “rapid degradation”, the “activity in food intake assays” value (NIH/Swiss mice; doses between 100-1000 μg/kg (up to 900 nmol/kg)) was “inactive” and the “FI (60′, 200)” value (NIH/Swiss mice; food intake) was −75%. For the same molecule, the “difference in potency between U-8 and rNMU-23” value (NIH/Swiss mice; food intake, mice) was “at least 1000 fold”.

With `CC(C)C[C@H](NC(=O)[C@H](CCCCN)NC(=O)[C@H](CCC(N)=O)NC(=O)[C@@H](NC(=O)[C@H](CCCCN)NC(=O)[C@H](CO)NC(=O)[C@H](Cc1ccc(O)cc1)NC(=O)[C@H](Cc1c[nH]cn1)NC(=O)[C@H](Cc1ccccc1)NC(=O)[C@H](CC(C)C)NC(=O)[C@@H](N)Cc1ccccc1)[C@@H](C)O)C(=O)NCC(=O)N[C@@H](CCCCN)C(=O)N[C@@H](CO)C(=O)N[C@@H](CC(N)=O)C(=O)N[C@@H](CO)C(=O)N[C@@H](CCCNC(=N)N)C(=O)NCC(=O)N[C@@H](Cc1ccc(O)cc1)C(=O)N[C@@H](Cc1ccccc1)C(=O)N[C@@H](CC(C)C)C(=O)N[C@@H](Cc1ccccc1)C(=O)N[C@@H](CCCNC(=N)N)C(=O)N1CCC[C@H]1C(=O)N[C@@H](CCCNC(=N)N)C(=O)N[C@@H](CC(N)=O)C(N)=O` [Des-(Val16-Gln27)FN38] (H-FLFHYSKTQKLGKSNSRGYFLFRPRN-NH2; N-terminus assumed) the remaining at 5 h [3, 6] was 80%, the “Food Intake Inhibition” value (NIH/Swiss mice) was −42% and the “cumulative food intake in mouse DIO (FIGS. 6A, 6B, 7A, 7B)” value [5] was “reduction of cumulative food intake”.

For `CC(C)C[C@H](NC(=O)[C@H](Cc1ccccc1)NC(=O)[C@H](Cc1ccc(O)cc1)NC(=O)CNC(=O)[C@H](CCCNC(=N)N)NC(=O)[C@H](CO)NC(=O)[C@H](CCC(N)=O)NC(=O)[C@H](CO)NC(=O)[C@H](C)NC(=O)[C@H](Cc1ccccc1)NC(=O)[C@@H]1CCCN1C(=O)[C@H](CO)NC(=O)[C@H](CCC(N)=O)NC(=O)[C@H](Cc1ccccc1)NC(=O)[C@H](CCC(=O)O)NC(=O)[C@H](CCC(=O)O)NC(=O)[C@H](CC(=O)O)NC(=O)[C@@H](NC(=O)[C@H](CCCNC(=N)N)NC(=O)[C@@H](N)Cc1ccccc1)C(C)C)C(=O)N[C@@H](Cc1ccccc1)C(=O)N[C@@H](CCCNC(=N)N)C(=O)N1CCC[C@H]1C(=O)N[C@@H](CCCNC(=N)N)C(=O)N[C@@H](CC(N)=O)C(N)=O` [Compound 165054, reference compound] (H-FRVDEEFQSPFASQSRGYFLFRPRN-NH2; N-terminus assumed), the remaining at 5 h ([3]; percent of stable, human brush border membrane extracts, five hours, 37° C., read-out: BBM) was 13%, the “reduction of food intake” value (NIH/Swiss mice) was “at least 91%” and the “FI (60′, 200)” value (NIH/Swiss mice; food intake) was −65%. The “potency administered peripherally versus centrally (i.c.v.), on a presumed concentration basis” value (NIH/Swiss mice; i.p. ED50 in mice compared with literature ICV dose in rats) was about 300 fold and the “reduction in food intake” value (rats) was about 30%.
